Read-outs that look alike come from different tables or passages of the source.

In one assay the test system is MKN45 cells. Put plainly: MKN45 cell proliferation assay (Cell-Titer-Glo, 120 h). It counts as cell-based. As to conditions: for EC50: Homo sapiens, MKN-45, 120 h, Cell-Titer-Glo, read-out: MKN45 Cell Prolif. 120 hr (EC50); for MKN45 Cell Prolif. 120 hr (Ymin-Obs): minimal percent of DMSO control observed in the concentrations tested. The method in brief:
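Cells seeded at 400/well onto pre-printed 10-point half-log dilutions (top 1 or 10 uM, 0.1% DMSO final), in triplicate, and grown 120 h at 37 C. Viability by Cell-Titer-Glo luminescence, blank-subtracted and normalised to DMSO; EC50 from four-parameter logistic fit, with observed minimal % of control recorded as Ymin-obs.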

The next assay addresses T1, WEE1 (Homo sapiens, UniProt P30291+Q96SW2).
T1 construct: C-terminal ePL-tagged (DiscoverX, Fremont, CA) full-length WEE1 expression construct; expressed in transfected cells; host or cells: LentiX-HEK293T (Invitrogen), lentiviral transduction; co-expressing GSPT1-GN (G576N, lacking the first 158 amino acids)
The experiment in a line: WEE1-ePL degradation assay (LentiX-WEE1-ePL-GSPT1-ND cells, InCELL Hunter luminescence, 4 h). In kind it is cell-based. Conditions: 293T-LentiX WEE1-ePL cells; for DC50: read-out: 293T-LentiX WEE1-ePL Degradation 4 hr (EC50). The method, boiled down: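 LentiX-HEK293T cells stably expressing C-terminally ePL-tagged full-length WEE1 were treated with compounds in a 10-point, 3-fold dilution series starting at 1 uM or 10 uM for 4 h at 37 °C. Remaining WEE1-ePL was detected by InCELL Hunter luminescence, and EC50, Ymin and Ymax came from a four-parameter logistic fit against DMSO control.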

Where [1] appears, read: lower limit of the fit (0 = luciferase inhibitor, Ymax = DMSO control).

In general, EC50 refers to the concentration needed to bring the measured effect to its halfway point. Take `CO[C@@H]1CCN(c2ccc3cc(CN4CC[C@H](Oc5ccc6c(c5)CN(C5CCC(=O)NC5=O)C6=O)C4)ccc3n2)C1` (stereo partly drawn) [3-(5-{[(3S)-1-({2-[(3R)-3-methoxypyrrolidin-1-yl]quinolin-6-yl}methyl)pyrrolidin-3-yl]oxy}-1-oxo-2,3-dihydro-1H-isoindol-2-yl)piperidine-2,6-dione]: the EC50 in the assay with MKN45 cells (growth inhibition) was 3.67 nM. Besides, in the assay on MKN45 cells, the “MKN45 Cell Prolif. 120 hr (Ymin-Obs)” value worked out at 8.99. Besides, at WEE1 (setting [1]), the “293T-LentiX WEE1-ePL Degradation 4 hr (Ymin)” value came to 37. At WEE1, the DC50 is 2.46 nM.
Taken in the same sequence, the figures for `O=C1CCC(N2Cc3cc(O[C@H]4CCN(Cc5ccc6nc([C@H]7CCCOC7)ncc6c5)C4)ccc3C2=O)C(=O)N1` (stereo partly drawn) [3-(5-{[(3S)-1-({2-[(3R)-oxan-3-yl]quinazolin-6-yl}methyl)pyrrolidin-3-yl]oxy}-1-oxo-2,3-dihydro-1H-isoindol-2-yl)piperidine-2,6-dione] were 8.8 nM, 6.66, 28.5 and 16 nM.
In the same order, the values of `O=C1CCC(N2Cc3cc(O[C@H]4CCN(Cc5ccc6nc([C@H]7CCCOC7)ccc6c5)C4)ccc3C2=O)C(=O)N1` (stereo partly drawn) [3-(5-{[(3S)-1-({2-[(3R)-oxan-3-yl]quinolin-6-yl}methyl)pyrrolidin-3-yl]oxy}-1-oxo-2,3-dihydro-1H-isoindol-2-yl)piperidine-2,6-dione] are 5.28 nM, 12.5, 32.33 and 3.33 nM.
Take `CN1CC[C@H](c2ncc3cc(CN4CC[C@H](Oc5ccc6c(c5)CN(C5CCC(=O)NC5=O)C6=O)C4)ccc3n2)C1` (stereo partly drawn) [3-(5-{[(3S)-1-({2-[(3S)-1-methylpyrrolidin-3-yl]quinazolin-6-yl}methyl)pyrrolidin-3-yl]oxy}-1-oxo-2,3-dihydro-1H-isoindol-2-yl)piperidine-2,6-dione]: in the assay with MKN45 cells, the EC50 turned out to be 84.1 nM and the “MKN45 Cell Prolif. 120 hr (Ymin-Obs)” value came out at 17.35. In addition, the “293T-LentiX WEE1-ePL Degradation 4 hr (Ymin)” value on WEE1 (lower limit of the fit (Ymin=0 luciferase inhibitor, Ymax DMSO control)) was found to be 36.52. Further, the DC50 at WEE1 was found to be 248 nM.
On to `CN1CC[C@H](c2ccc3cc(CN4CC[C@H](Oc5ccc6c(c5)CN(C5CCC(=O)NC5=O)C6=O)C4)ccc3n2)C1` (stereo partly drawn) [3-(5-{[(3S)-1-({2-[(3S)-1-methylpyrrolidin-3-yl]quinolin-6-yl}methyl)pyrrolidin-3-yl]oxy}-1-oxo-2,3-dihydro-1H-isoindol-2-yl)piperidine-2,6-dione], for which, in the assay on MKN45 cells (growth inhibition), the EC50 was determined as 59.7 nM. For the same compound, in the assay on MKN45 cells, the “MKN45 Cell Prolif. 120 hr (Ymin-Obs)” value turned out to be 12.73. In addition, on WEE1 (setting [1]), the “293T-LentiX WEE1-ePL Degradation 4 hr (Ymin)” value amounted to 37. For the same compound, the DC50 on WEE1 is 67.5 nM.
Taken in the same sequence, the figures for `O=C1CCC(N2Cc3cc(O[C@H]4CCN(Cc5ccc6nc(N7CC[C@H](O)C7)ccc6c5)C4)ccc3C2=O)C(=O)N1` (stereo partly drawn) [3-(5-{[(3S)-1-({2-[(3S)-3-hydroxypyrrolidin-1-yl]quinolin-6-yl}methyl)pyrrolidin-3-yl]oxy}-1-oxo-2,3-dihydro-1H-isoindol-2-yl)piperidine-2,6-dione] were 11.4 nM, 7.1, 36.5 and 10.4 nM.
Take `CO[C@H]1CCCN(c2ccc3cc(CN4CC[C@H](Oc5ccc6c(c5)CN(C5CCC(=O)NC5=O)C6=O)C4)ccc3n2)C1` (stereo partly drawn) [3-(5-{[(3S)-1-({2-[(3S)-3-methoxypiperidin-1-yl]quinolin-6-yl}methyl)pyrrolidin-3-yl]oxy}-1-oxo-2,3-dihydro-1H-isoindol-2-yl)piperidine-2,6-dione]: the EC50 in the assay with MKN45 cells (growth inhibition) is 5.29 nM. Moreover, the “MKN45 Cell Prolif. 120 hr (Ymin-Obs)” value with MKN45 cells is listed as 10.12. Also, the “293T-LentiX WEE1-ePL Degradation 4 hr (Ymin)” value on WEE1 (setting [1]) is recorded as 34. In addition, at WEE1, the DC50 was determined as 5.83 nM.
In the same order, the values of `CO[C@H]1CCN(c2ccc3cc(CN4CC[C@H](Oc5ccc6c(c5)CN(C5CCC(=O)NC5=O)C6=O)C4)ccc3n2)C1` (stereo partly drawn) [3-(5-{[(3S)-1-({2-[(3S)-3-methoxypyrrolidin-1-yl]quinolin-6-yl}methyl)pyrrolidin-3-yl]oxy}-1-oxo-2,3-dihydro-1H-isoindol-2-yl)piperidine-2,6-dione] are 1.58 nM, 9.12, 34 and 3.58 nM.
Taken in the same sequence, the figures for `O=C1CCC(N2Cc3cc(O[C@H]4CCN(Cc5ccc6nc([C@@H]7CCCOC7)ncc6c5)C4)ccc3C2=O)C(=O)N1` (stereo partly drawn) [3-(5-{[(3S)-1-({2-[(3S)-oxan-3-yl]quinazolin-6-yl}methyl)pyrrolidin-3-yl]oxy}-1-oxo-2,3-dihydro-1H-isoindol-2-yl)piperidine-2,6-dione] were 19.4 nM, 5.31, 31 and 33.8 nM.
Regarding `O=C1CCC(N2Cc3cc(O[C@H]4CCN(Cc5ccc6nc([C@@H]7CCCOC7)ccc6c5)C4)ccc3C2=O)C(=O)N1` (stereo partly drawn) [3-(5-{[(3S)-1-({2-[(3S)-oxan-3-yl]quinolin-6-yl}methyl)pyrrolidin-3-yl]oxy}-1-oxo-2,3-dihydro-1H-isoindol-2-yl)piperidine-2,6-dione], the EC50 in the assay on MKN45 cells (growth inhibition) was determined as 3.59 nM. For the same compound, the “MKN45 Cell Prolif. 120 hr (Ymin-Obs)” value in the assay on MKN45 cells came to 10.6. Moreover, at WEE1 (setting [1]), the “293T-LentiX WEE1-ePL Degradation 4 hr (Ymin)” value was 32. In addition, on WEE1, the DC50 worked out at 2.15 nM.
Taken in the same sequence, the figures for `O=C1CCC(N2Cc3cc(O[C@H]4CCN(Cc5ccc6nc(N7C[C@H]8CCO[C@H]8C7)ncc6c5)C4)ccc3C2=O)C(=O)N1` (stereo partly drawn) [3-(5-{[(3S)-1-({2-[(3aR,6aR)-hexahydro-2H-furo[2,3-c]pyrrol-5-yl]quinazolin-6-yl}methyl)pyrrolidin-3-yl]oxy}-1-oxo-2,3-dihydro-1H-isoindol-2-yl)piperidine-2,6-dione] were 13.4 nM, 13.09, 35 and 12.6 nM.
Turning to `O=C1CCC(N2Cc3cc(O[C@H]4CCN(Cc5ccc6nc(N7C[C@H]8CCO[C@H]8C7)ccc6c5)C4)ccc3C2=O)C(=O)N1` (stereo partly drawn) [3-(5-{[(3S)-1-({2-[(3aR,6aR)-hexahydro-2H-furo[2,3-c]pyrrol-5-yl]quinolin-6-yl}methyl)pyrrolidin-3-yl]oxy}-1-oxo-2,3-dihydro-1H-isoindol-2-yl)piperidine-2,6-dione], the EC50 in the assay with MKN45 cells (growth inhibition) was determined as 6.09 nM. Also, the “MKN45 Cell Prolif. 120 hr (Ymin-Obs)” value in the assay with MKN45 cells came out at 14.13. The “293T-LentiX WEE1-ePL Degradation 4 hr (Ymin)” value at WEE1 (setting [1]) is listed as 37. For the same compound, the DC50 on WEE1 turned out to be 3.2 nM.
Regarding `O=C1CCC(N2Cc3cc(O[C@H]4CCN(Cc5ccc6nc(N7C[C@H]8COC[C@H]8C7)ncc6c5)C4)ccc3C2=O)C(=O)N1` (stereo partly drawn) [3-(5-{[(3S)-1-({2-[(3aR,6aS)-hexahydro-1H-furo[3,4-c]pyrrol-5-yl]quinazolin-6-yl}methyl)pyrrolidin-3-yl]oxy}-1-oxo-2,3-dihydro-1H-isoindol-2-yl)piperidine-2,6-dione], the EC50 in the assay with MKN45 cells (growth inhibition) was found to be 13 nM. Moreover, in the assay with MKN45 cells, the “MKN45 Cell Prolif. 120 hr (Ymin-Obs)” value is recorded as 12.43. In addition, the “293T-LentiX WEE1-ePL Degradation 4 hr (Ymin)” value at WEE1 (setting [1]) came to 38. The DC50 at WEE1 was 14 nM.
With `O=C1CCC(N2Cc3cc(O[C@H]4CCN(Cc5ccc6nc(N7C[C@H]8COC[C@H]8C7)ccc6c5)C4)ccc3C2=O)C(=O)N1` (stereo partly drawn) [3-(5-{[(3S)-1-({2-[(3aR,6aS)-hexahydro-1H-furo[3,4-c]pyrrol-5-yl]quinolin-6-yl}methyl)pyrrolidin-3-yl]oxy}-1-oxo-2,3-dihydro-1H-isoindol-2-yl)piperidine-2,6-dione], the EC50 with MKN45 cells (growth inhibition) turned out to be 6.4 nM. Also, in the assay with MKN45 cells, the “MKN45 Cell Prolif. 120 hr (Ymin-Obs)” value is on record as 14.73. In addition, the “293T-LentiX WEE1-ePL Degradation 4 hr (Ymin)” value at WEE1 (setting [1]) is 39. Besides, at WEE1, the DC50 amounted to 3.61 nM.
Taken in the same sequence, the figures for `CC1(C)C[C@H](c2ncc3cc(CN4CC[C@H](Oc5ccc6c(c5)CN(C5CCC(=O)NC5=O)C6=O)C4)ccc3n2)CCO1` (stereo partly drawn) [3-(5-{[(3S)-1-({2-[(4R)-2,2-dimethyloxan-4-yl]quinazolin-6-yl}methyl)pyrrolidin-3-yl]oxy}-1-oxo-2,3-dihydro-1H-isoindol-2-yl)piperidine-2,6-dione] were 19.7 nM, 9.866, 27 and 65 nM.
For `CC1(C)COCC[C@H]1c1ccc2cc(CN3CC[C@H](Oc4ccc5c(c4)CN(C4CCC(=O)NC4=O)C5=O)C3)ccc2n1` (stereo partly drawn) [3-(5-{[(3S)-1-({2-[(4R)-3,3-dimethyloxan-4-yl]quinolin-6-yl}methyl)pyrrolidin-3-yl]oxy}-1-oxo-2,3-dihydro-1H-isoindol-2-yl)piperidine-2,6-dione], the EC50 with MKN45 cells (growth inhibition) turned out to be 8.03 nM. Also, in the assay on MKN45 cells, the “MKN45 Cell Prolif. 120 hr (Ymin-Obs)” value was 11.03. Further, the “293T-LentiX WEE1-ePL Degradation 4 hr (Ymin)” value at WEE1 (setting [1]) is reported as 41. At WEE1, the DC50 turned out to be 3.31 nM.
Take `O=C1CCC(N2Cc3cc(O[C@H]4CCN(Cc5ccc6nc(N7CC[C@]78CCOC8)ncc6c5)C4)ccc3C2=O)C(=O)N1` (stereo partly drawn) [3-(5-{[(3S)-1-({2-[(4R)-6-oxa-1-azaspiro[3.4]octan-1-yl]quinazolin-6-yl}methyl)pyrrolidin-3-yl]oxy}-1-oxo-2,3-dihydro-1H-isoindol-2-yl)piperidine-2,6-dione]: the EC50 in the assay on MKN45 cells (growth inhibition) was determined as 16.7 nM. Moreover, the “MKN45 Cell Prolif. 120 hr (Ymin-Obs)” value in the assay on MKN45 cells is recorded as 13.42. The “293T-LentiX WEE1-ePL Degradation 4 hr (Ymin)” value at WEE1 (setting [1]) came out at 35.43. For the same compound, the DC50 at WEE1 amounted to 19.5 nM.

Values taken from patent publication US20240067632A1, “WEE1 Degrading Compounds and Uses Thereof” (Bristol-Myers Squibb Company, priority 2022, published 2024).
